Values quoted from earlier work, collected in patent US20260335397A1, “TREATMENT OF GEOGRAPHIC ATROPHY” (Apellis Pharmaceuticals, Inc., priority 2022, published 2026).
Where a SMILES comes first, the peptide text is derived from it. Bridges are numbered along the chain shown (N, C = ends). [ ]: non-standard residue; d: D form. Abu = CC[C@H](N)C(=O)O

Test system: complement activation
Conditions: relative to compstatin (C-terminally amidated); published data; cited from earlier work

SMILES | Activity over compstatin
CC[C@H](C)[C@H](NC(C)=O)C(=O)N[C@H]1CSSC[C@@H](C(=O)N[C@H](C(N)=O)[C@@H](C)O)NC(=O)[C@H](CCCNC(=N)N)NC(=O)[C@H](Cc2c[nH]cn2)NC(=O)[C@H](C)NC(=O)CNC(=O)[C@H](Cc2c[nH]c3ccccc23)NC(=O)[C@H](CC(=O)O)NC(=O)[C@H](CCC(N)=O)NC(=O)[C@H](Cc2ccc(O)cc2)NC(=O)[C@H](C(C)C)NC1=O [Ac-V4Y/H9A] | 14xmore
CC[C@H](C)[C@H](NC(C)=O)C(=O)N[C@H]1CSSC[C@@H](C(=O)N[C@H](C(N)=O)[C@@H](C)O)NC(=O)[C@H](CCCNC(=N)N)NC(=O)[C@H](Cc2c[nH]cn2)NC(=O)[C@H](C)NC(=O)CNC(=O)[C@H](Cc2c[nH]c3ccccc23)NC(=O)[C@H](CC(=O)O)NC(=O)[C@H](CCC(N)=O)NC(=O)[C@H](Cc2csc3ccccc23)NC(=O)[C@H](C(C)C)NC1=O [Ac-V4(Bta)/H9A] | 64xmore
CC[C@H](C)[C@H](NC(C)=O)C(=O)N[C@H]1CSSC[C@@H](C(=O)N[C@H](C(N)=O)[C@@H](C)O)NC(=O)[C@H](CCCNC(=N)N)NC(=O)[C@H](Cc2c[nH]cn2)NC(=O)[C@H](C)NC(=O)CNC(=O)[C@H](Cc2c[nH]c3ccccc23)NC(=O)[C@H](CC(=O)O)NC(=O)[C@H](CCC(N)=O)NC(=O)[C@H](Cc2c[nH]c3ccccc23)NC(=O)[C@H](C(C)C)NC1=O [Ac-V4W/H9A] | 45xmore
CC[C@@H]1NC(=O)CNC(=O)[C@H](Cc2c[nH]c3ccccc23)NC(=O)[C@H](CC(=O)O)NC(=O)[C@H](CCC(N)=O)NC(=O)[C@H](Cc2c[nH]c3ccccc23)NC(=O)[C@H](C(C)C)NC(=O)[C@@H](NC(=O)[C@@H](NC(C)=O)[C@@H](C)CC)CSSC[C@@H](C(=O)N[C@H](C(N)=O)[C@@H](C)O)NC(=O)[C@H](CCCNC(=N)N)NC(=O)[C@H](Cc2c[nH]cn2)NC1=O [Ac-V4W/H9(2-Abu)] (Ac-ICVWQDWG[Abu]HRCT-NH2; disulfide 2-12) | 64xmore
CC[C@H](C)[C@H](NC(C)=O)C(=O)N[C@H]1CSSC[C@@H](C(=O)N[C@H](C(N)=O)[C@@H](C)O)NC(=O)[C@H](CCCNC(=N)N)NC(=O)[C@H](Cc2c[nH]cn2)NC(=O)[C@H](C)NC(=O)CNC(=O)[C@H](Cc2c[nH]c3ccc(F)cc23)NC(=O)[C@H](CC(=O)O)NC(=O)[C@H](CCC(N)=O)NC(=O)[C@H](Cc2cn(C)c3ccccc23)NC(=O)[C@H](C(C)C)NC1=O [Ac-V4(1MeW)/W7(5fW)/H9A] | 264xmore
CC[C@H](C)[C@H](NC(=O)CN)C(=O)N[C@H]1CSSC[C@@H](C(=O)N[C@H](C(=O)N[C@@H](CC(N)=O)C(=O)O)[C@@H](C)O)NC(=O)[C@H](CCCNC(=N)N)NC(=O)[C@H](Cc2c[nH]cn2)NC(=O)[C@H](C)NC(=O)CNC(=O)[C@H](Cc2c[nH]c3cc(F)ccc23)NC(=O)[C@H](CC(=O)O)NC(=O)[C@H](CCC(N)=O)NC(=O)[C@H](Cc2c[nH]c3cc(F)ccc23)NC(=O)[C@H](C(C)C)NC1=O [+G/V4(6fW)/W7(6fW)H9A+N-OH] | 126xmore
CC[C@H](C)[C@H](NC(C)=O)C(=O)N[C@H]1CSSC[C@@H](C(=O)N[C@H](C(=O)O)[C@@H](C)O)NC(=O)[C@H](CCCNC(=N)N)NC(=O)[C@H](Cc2c[nH]cn2)NC(=O)[C@H](C)NC(=O)CNC(=O)[C@H](Cc2c[nH]c3ccccc23)NC(=O)[C@H](CC(=O)O)NC(=O)[C@H](CCC(N)=O)NC(=O)[C@H](Cc2ccc(C(=O)c3ccccc3)cc2)NC(=O)[C@H](C(C)C)NC1=O [Ac-V4(Bpa)/H9A-OH] | 49xmore
CC[C@H](C)[C@H](NC(C)=O)C(=O)N[C@H]1CSSC[C@@H](C(=O)N[C@H](C(N)=O)[C@@H](C)O)NC(=O)[C@H](CCCNC(=N)N)NC(=O)[C@H](Cc2c[nH]cn2)NC(=O)[C@H](C)NC(=O)CNC(=O)[C@H](Cc2c[nH]c3ccccc23)NC(=O)[C@H](CC(=O)O)NC(=O)[C@H](CCC(N)=O)NC(=O)[C@H](Cc2ccc(C(=O)c3ccccc3)cc2)NC(=O)[C@H](C(C)C)NC1=O [Ac-V4(Bpa)/H9A] | 86xmore
CC[C@H](C)[C@H](NC(C)=O)C(=O)N[C@H]1CSSC[C@@H](C(=O)N[C@H](C(N)=O)[C@@H](C)O)NC(=O)[C@H](CCCNC(=N)N)NC(=O)[C@H](Cc2c[nH]cn2)NC(=O)[C@H](C)NC(=O)CNC(=O)[C@H](Cc2c[nH]c3ccccc23)NC(=O)[C@H](CC(=O)O)NC(=O)[C@H](CCC(N)=O)NC(=O)[C@H](Cc2c[nH]c3ccc(C)cc23)NC(=O)[C@H](C(C)C)NC1=O [Ac-V4(5-MeW)/H9A] | 67xmore
CC[C@H](C)[C@H](NC(C)=O)C(=O)N[C@H]1CSSC[C@@H](C(=O)N[C@H](C(N)=O)[C@@H](C)O)NC(=O)[C@H](CCCNC(=N)N)NC(=O)[C@H](Cc2c[nH]cn2)NC(=O)[C@H](Cc2c[nH]cn2)NC(=O)CNC(=O)[C@H](Cc2c[nH]c3ccccc23)NC(=O)[C@H](CC(=O)O)NC(=O)[C@H](CCC(N)=O)NC(=O)[C@H](C(C)C)NC(=O)[C@H](C(C)C)NC1=O [Ac-compstatin] | 3xmore
CC[C@H](C)[C@H](NC(C)=O)C(=O)N[C@H]1CSSC[C@@H](C(=O)N[C@H](C(=O)O)[C@@H](C)O)NC(=O)[C@H](CCCNC(=N)N)NC(=O)[C@H](Cc2c[nH]cn2)NC(=O)[C@H](C)NC(=O)CNC(=O)[C@H](Cc2c[nH]c3ccccc23)NC(=O)[C@H](CC(=O)O)NC(=O)[C@H](CCC(N)=O)NC(=O)[C@H](Cc2csc3ccccc23)NC(=O)[C@H](C(C)C)NC1=O [Ac-V4(Bta)/H9A-OH] | 65xmore
CC[C@H](C)[C@H](NC(C)=O)C(=O)N[C@H]1CSSC[C@@H](C(=O)N[C@H](C(N)=O)[C@@H](C)O)NC(=O)[C@H](CCCNC(=N)N)NC(=O)[C@H](Cc2c[nH]cn2)NC(=O)[C@H](C)NC(=O)CNC(=O)[C@H](Cc2c[nH]c3ccccc23)NC(=O)[C@H](CC(=O)O)NC(=O)[C@H](CCC(N)=O)NC(=O)[C@H](Cc2c[nH]c3ccc(F)cc23)NC(=O)[C@H](C(C)C)NC1=O [Ac-V4(5fW)/H9A] | 31xmore
CC[C@H](C)[C@H](NC(C)=O)C(=O)N[C@H]1CSSC[C@@H](C(=O)N[C@H](C(=O)O)[C@@H](C)O)NC(=O)[C@H](CCCNC(=N)N)NC(=O)[C@H](Cc2c[nH]cn2)NC(=O)[C@H](C)NC(=O)CNC(=O)[C@H](Cc2c[nH]c3ccccc23)NC(=O)[C@H](CC(=O)O)NC(=O)[C@H](CCC(N)=O)NC(=O)[C@H](Cc2cccc3ccccc23)NC(=O)[C@H](C(C)C)NC1=O [Ac V4(1-Nal)/H9A-OH] | 30xmore
CC[C@H](C)[C@H](NC(C)=O)C(=O)N[C@H]1CSSC[C@@H](C(=O)N[C@H](C(N)=O)[C@@H](C)O)NC(=O)[C@H](CCCNC(=N)N)NC(=O)[C@H](Cc2c[nH]cn2)NC(=O)[C@H](C)NC(=O)CNC(=O)[C@H](Cc2c[nH]c3ccccc23)NC(=O)[C@H](CC(=O)O)NC(=O)[C@H](CCC(N)=O)NC(=O)[C@H](Cc2ccc3ccccc3c2)NC(=O)[C@H](C(C)C)NC1=O [Ac-V4(2-Nal)/H9A] | 99xmore
CC[C@H](C)[C@H](NC(C)=O)C(=O)N[C@H]1CSSC[C@@H](C(=O)N[C@H](C(=O)O)[C@@H](C)O)NC(=O)[C@H](CCCNC(=N)N)NC(=O)[C@H](Cc2c[nH]cn2)NC(=O)[C@H](C)NC(=O)CNC(=O)[C@H](Cc2c[nH]c3ccccc23)NC(=O)[C@H](CC(=O)O)NC(=O)[C@H](CCC(N)=O)NC(=O)[C@H](C2Cc3ccccc3C2)NC(=O)[C@H](C(C)C)NC1=O [Ac-V42Igl/H9A-OH] | 37xmore
CC[C@H](C)[C@H](NC(C)=O)C(=O)N[C@H]1CSSC[C@@H](C(=O)N[C@H](C(N)=O)[C@@H](C)O)NC(=O)[C@H](CCCNC(=N)N)NC(=O)[C@H](Cc2c[nH]cn2)NC(=O)[C@H](C)NC(=O)CNC(=O)[C@H](Cc2c[nH]c3ccccc23)NC(=O)[C@H](CC(=O)O)NC(=O)[C@H](CCC(N)=O)NC(=O)[C@H](C2Cc3ccccc3C2)NC(=O)[C@H](C(C)C)NC1=O [Ac-V42Igl/H9A] | 39xmore
CC[C@H](C)[C@H](NC(C)=O)C(=O)N[C@H]1CSSC[C@@H](C(=O)N[C@@H](C(=O)O)[C@H](C)O)NC(=O)[C@H](CCCNC(=N)N)NC(=O)[C@H](Cc2c[nH]cn2)NC(=O)[C@H](C)NC(=O)CNC(=O)[C@H](Cc2c[nH]c3ccccc23)NC(=O)[C@H](CC(=O)O)NC(=O)[C@H](CCC(N)=O)NC(=O)[C@H](Cc2c[nH]c3ccccc23)NC(=O)[C@H](C(C)C)NC1=O [Ac-V4W/H9A/T13dT-OH] | 55xmore
CC[C@H](C)[C@H](NC(C)=O)C(=O)N[C@H]1CSSC[C@@H](C(=O)N[C@H](C(=O)O)[C@@H](C)O)NC(=O)[C@H](CCCNC(=N)N)NC(=O)[C@H](Cc2c[nH]cn2)NC(=O)[C@H](C)NC(=O)CNC(=O)[C@H](Cc2c[nH]c3ccccc23)NC(=O)[C@H](CC(=O)O)NC(=O)[C@H](CCC(N)=O)NC(=O)[C@H](Cc2ccc3ccccc3c2)NC(=O)[C@H](C(C)C)NC1=O [Ac V4(2-Nal)/H9A-OH] | 38xmore
CC[C@H](C)[C@H](NC(C)=O)C(=O)N[C@H]1CSSC[C@@H](C(=O)N[C@H](C(N)=O)[C@@H](C)O)NC(=O)[C@H](CCCNC(=N)N)NC(=O)[C@H](Cc2c[nH]cn2)NC(=O)[C@H](C)NC(=O)CNC(=O)[C@H](Cc2c[nH]c3ccc(F)cc23)NC(=O)[C@H](CC(=O)O)NC(=O)[C@H](CCC(N)=O)NC(=O)[C@H](Cc2c[nH]c3ccccc23)NC(=O)[C@H](C(C)C)NC1=O [Ac-V4W/W7(5fW)/H9A] | 121xmore
